Reference: US5519028A, “Antiviral preparations” (priority 1992, dated 1996)
Like-named read-outs stand apart in the source and are kept apart here.

Columns and labels:
[1] = tested on: HIV-1
[2] = tested on: HIV-1 BRE1 (HIV-1Asym.); experiment: HIV P24 production, target PBMC pretreated, isolate BRE1; format: cell-based; settings: for Post-infection production of HIV P24: PBMC + 30 μg/ml 2 hours
Procedure: To test the efficacy of flavopereirine on the infectious capability of HIV-1, two experiments were conducted. […] After 2 hours of incubation, the cells were rinsed twice and cultivated in 1 ml of RPMI 1640 containing 20 IU of IL-2 per ml (Boehringer […], Germany), 2 μg of Polybrene (hexadimethrine bromide) per ml (Sigma, St. Louis, Mo., USA) and 10^-7 IU of goat antiserum acting against human alpha interferon (Janssen, Beerse, Belgium) per ml. Half the culture was changed after 72 hours, and thereafter every 48 hours until the 30th day. […] The surface material of the culture was tested by an immuno-enzymatic (ELISA) assay for the production of antigen P24 (Abbott, Chicago, Ill., USA) and the optical density (OD) of the resulting color was converted into P24 concentration from the slope of a standard nomogram, as described by W. Lu and J. -M. Andrieu, Journal of Virology, 66(1): 334-340 (1992).

[3] = tested on: HIV; settings: human, in vivo
[4] = tested on: TNF-α; experiment: TNF-α production by monocytes of normal donors; format: cell-based, human
Procedure: (§1) The effects of flavopereirine on the production of primary (IL-1β and TNF-α) and secondary (IL-6) cytokines by monocytes was also tested. The adhesive monocytes used were taken from the blood of two types of donors:
Normal donors--voluntary blood donors who attended the blood bank of the Pitie-Salpetriere Hospital, Paris, France; and
Product H was not used in these experiments at a rate of more than 20 μg/ml water, since above this rate, net toxicity could have been produced.

[5] = tested on: IL-1β; experiment: IL-1β production by monocytes of HIV-positive donors; format: cell-based, human
Procedure: as §1
HIV-positive donors from medical consultations. These individuals were in the early stages of HIV infection and, at the moment of taking the blood, were not undergoing any treatment. The risk factors involved were intravenous drug abuse for six of the donors, sexual transmission for three and blood transfusion (in Zaire) for one patient. No correlation was found between the risk factors and the results of the experiments.
The response of the monocytes taken from the various HIV-positive donors was tested in terms of spontaneous response. The quantities of cells received were low (the donors were not affected by cytapheresy), and the experiments were therefore limited by the number of cells available.

[6] = tested on: influenza virus; settings: cited from earlier work
[7] = tested on: human PBMC at rest; experiment: Cytotoxicity (viability) in resting PBMC; format: cell-based
Procedure: (§2) To evaluate the cytotoxicity of flavopereirine in resting PBMC and in blast cells, prewashed fresh and blastic PBMC taken from five randomly-selected,healthy, HIV-negative donors were treated in triplicate with 30 or 60 μg flavopereirine per ml of alcoholic solution for two hours, After washing twice, the cells were placed in culture in cellular culture medium until day 15. The viability of the cells of each group was examined by exclusion coloring with trypan blue and by quantimetric analysis. Cultures of HIV-negative PBMC without flavopereirine (compound H) were used as controls.

[8] = Cytotoxicity (viability) in resting PBMC; format: cell-based, human; settings: human, pbmc, read-out: Viability of PBMC after exposure; for viability at 72 h: d3; for viability at 168 h: d7; for viability at 264 h: d11; for viability at 312 h: d13; for viability at 360 h: d15
Procedure: as §2

[9] = tested on: HIV-1; experiment: HIV-1 cytopathogenic effect on MT4 cells (syncytia count); format: cell-based
Procedure: An evaluation of the antiviral effect of flavopereirine was also undertaken by studying the cytopathogenic effect of the HIV virus on MT4 cells, given that a formation of syncytia was observed 4-6 days after infection by HIV-1, followed by the death of the cells.
The flavopereirine was used in the form of an alcoholic solution (40 mg in 100 μl alcohol). Dilutions were made in RPMI medium at 10% of FCS, 1% of PSN and 1% of glutamine. The MT4 cells were left to pre-incubate for two hours at 37° C. with a successive dilution of flavopereirine containing 3×10^5 cells for 10 μl of flavopereirine solution. The solution was obtained by adding 100 μl of a 10^-4 dilution of HIV-1 virus, producing a syncytia formation in 4-6 days. After one hour of incubation at 37° C., the infected MT4 cells were washed three times with RPMI solution before being placed in culture (3×10^5 cells/ml in microplates with 24 wells) with the presence of different dilutions of flavopereirine. The syncytia count was taken each day in duplicate.

[10] = tested on: HIV-1; experiment: microbe, parasite or virus in culture; settings: Human immunodeficiency virus 1, PBMC, read-out: concentration totally inhibiting replication of HIV-1

CCc1ccc2c3[nH]c4ccccc4c3cc[n+]2c1 [flavopereirine]
Production of P24 in HIV ([1]; 50% AB serum, 10 μg/ml 2 hrs, d4): 384 ± 83 pg/mL | Production of P24 in HIV ([1]; 50% AB serum, 10 μg/ml 2 hrs, d10): > 1500 pg/mL | Production of P24 in HIV ([1]; 50% AB serum, 30 μg/ml 2 hrs, d4): 275 ± 98 pg/mL | Production of P24 in HIV ([1]; 50% AB serum, 30 μg/ml 2 hrs, d10): > 1500 pg/mL | efficacy on inhibition of wild HIV-1 in human serum ([1]; 50% human serum): remained unchanged | influence of constituents of human serum ([1]; HIV-1 inhibition at non-cytotoxic concentrations): did not appear to be influenced by the constituents of the human serum | Production of P24 in HIV ([1]; no serum, 10 μg/ml 2 hrs, d4): 388 ± 124 pg/mL | Production of P24 in HIV ([1]; no serum, 10 μg/ml 2 hrs, d10): > 1500 pg/mL | Production of P24 in HIV ([1]; no serum, 30 μg/ml 2 hrs, d4): 173 ± 102 pg/mL | Production of P24 in HIV ([1]; no serum, 30 μg/ml 2 hrs, d10): > 1500 pg/mL | Post-infection production of HIV P24 ([2]; d3): 113 ± 7 pg/mL | Post-infection production of HIV P24 ([2]; d5): > 1500 pg/mL | inhibition of productive viral infections ([2]; target PBMC pretreated with 60 μg/ml only): complete inhibition of productive viral infections | CD2 [3]: Increase | CD4 [3]: Increase | CD4+ cells [3]: significant increase | CD8 [3]: Increase | CD19 [3]: Increase | CD19+ cells [3]: significant increase | Karnofsky's index [3]: ~100% | blood or renal toxicity [3]: Neither blood nor renal toxicity was observed | degradation in CDC classification [3]: No degradation in the CDC classification | effect on viral infectional capacity of HIV [3]: significant inhibitory effect on the viral infectional capacity of HIV | hemoglobin [3]: Increase | infections [3]: no infections were noticed | microglobulin beta-2 [3]: Increase | modification in ALAT or ASAT [3]: nor was there any significant modification in ALAT or ASAT | patients with negative decline in CD4+ reversed [3]: 18 out of 19 | physical and professional activity [3]: remained completely normal | red cells [3]: Increase | side effects [3]: Side effects were few, occurring only in the first three months | total lymphocyte mass [3]: Increase | toxic or side effects ([3]; po): devoid of toxic or side effects | direct activity on production of TNF-α ([4]; donor 7, one dose only): Increase in the production of TNF-α | indirect activity on production of TNF-α ([4]; stimulated monocytes, heavy dosage only (20 βg/ml as printed), p<0.05): sharp reduction in production | direct activity on base production of IL-1β ([5]; HIV-positive donors): No modification on the base production was observed | indirect activity on production of interleukin-1 ([5]; three dosages, p<0.05): absence of any impact on the production of interleukin-1 | activity against the influenza virus ([6]; EP-A-0 059 817): active against the influenza virus | action against influenza (RNA virus) ([6]; in vivo): appears to act in vivo against influenza | significant reduction of viability of resting PBMC ([7]; 30 μg/ml): this was not the case | viability of resting PBMC ([7]; 60 μg/ml, p<0.05): reduced significantly | viability at 72 h ([8]; 30 μg/ml 2 hrs): 95 ± 4% | viability at 168 h ([8]; 30 μg/ml 2 hrs): 93 ± 2% | viability at 264 h ([8]; 30 μg/ml 2 hrs): 88 ± 7% | viability at 312 h ([8]; 30 μg/ml 2 hrs): 82 ± 10% | viability at 360 h ([8]; 30 μg/ml 2 hrs): 81 ± 11% | viability at 72 h ([8]; 60 μg/ml 2 hrs): 56 ± 6% | viability at 168 h ([8]; 60 μg/ml 2 hrs): 23 ± 4% | viability at 264 h ([8]; 60 μg/ml 2 hrs): 17 ± 4% | viability at 312 h ([8]; 60 μg/ml 2 hrs): 12 ± 5% | viability at 360 h ([8]; 60 μg/ml 2 hrs): 25 ± 8% | syncytia ([9]; 100 ng/ml, d7, duplicate, Table I): ++/T | syncytia ([9]; 1 μg/ml, d7, duplicate, Table I): ++/T | syncytia ([9]; 30 μg/ml, d6, duplicate, Table III): a few were observed after 6 days | syncytia ([9]; 50 μg/ml, d7, duplicate, Table I): syncytia had not formed after 7 days culture | protection ([9]; 50 μg/ml, Table II summary): confirms the protection | syncytia ([9]; 60 μg/ml, d7, duplicate, Table III): no syncytia were formed | syncytia ([9]; from 10 μg/ml to 100 ng/ml, Table I summary): syncytia was observed, as it was in the HIV-1 control | IC100 [10]: 60 to 100 µg/mL
